In ChEMBL document CHEMBL1201862, “PubChem BioAssay data set” (2004):
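Compound exposure: 48 hours, 5 concentrations, 96-well plates. GI50 = concentration required for 50% inhibition of growth.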 Active and inactive are the calls of the source. Cut-off read from the data, not from the text of the source: active = GI50 up to about 1.1 µM and inactive = higher.

Legend:
Assay in all cases: NCI-60 cell line screen, 48 h
[1] = tested on: UACC-257
[2] = tested on: HCC 2998
[3] = tested on: HL-60
[4] = tested on: HOP-92
[5] = tested on: SK-OV-3
[6] = tested on: TK-10
[7] = tested on: OVCAR-8
[8] = tested on: A549
[9] = tested on: OVCAR-4
[10] = tested on: SK-MEL-5
[11] = tested on: SF-295
[12] = tested on: PC-3
[13] = tested on: RXF 393
[14] = tested on: SK-MEL-28
[15] = tested on: SW-620
[16] = tested on: HCT-15
[17] = tested on: ACHN
[18] = tested on: RPMI-8226
[19] = tested on: K562
[20] = tested on: UACC-62
[21] = tested on: HOP-62
[22] = tested on: NCI-H460
[23] = tested on: MOLT-4
[24] = tested on: EKVX
[25] = tested on: CAKI-1
[26] = tested on: T47D
[27] = tested on: COLO 205
[28] = tested on: MDA-N
[29] = tested on: U-251
[30] = tested on: NCI/ADR-RES
[31] = tested on: DU-145
[32] = tested on: A498
[33] = tested on: MDA-MB-231
[34] = tested on: OVCAR-3
[35] = tested on: SNB-19
[36] = tested on: NCI-H226
[37] = tested on: IGROV-1
[38] = tested on: MDA-MB-435
[39] = tested on: HT-29
[40] = tested on: NCI-H23
[41] = tested on: OVCAR-5
[42] = tested on: SR
[43] = tested on: SK-MEL-2
[44] = tested on: MCF7
[45] = tested on: LOX IMVI
[46] = tested on: UO-31
[47] = tested on: CCRF-CEM
[48] = tested on: M14
[49] = tested on: KM12
[50] = tested on: NCI-H522
[51] = tested on: SN12C
[52] = tested on: SF-268
[53] = tested on: 786-0
[54] = tested on: HCT-116
[55] = tested on: SF-539
[56] = tested on: SNB-75
[57] = tested on: Hs-578T
[58] = tested on: Malme-3M

For `C[C@]12CC[C@@H]3c4ccc(OCCN5CCCC5)cc4CC[C@H]3[C@@H]1CCC2=O`, the GI50 [1] was 27 µM (inactive), the GI50 [2] was 10.3 µM (inactive) and the GI50 [3] was 45.2 µM (inactive). The GI50 [4] was 29 µM (inactive), the GI50 [5] was 48.6 µM (inactive) and the GI50 [6] was 41 µM (inactive). The GI50 [7] was 25.6 µM (inactive), the GI50 [8] was 23.6 µM (inactive) and the GI50 [9] was 21.5 µM (inactive). The GI50 [10] was 13.3 µM (inactive), the GI50 [11] was 18.7 µM (inactive) and the GI50 [12] was 23.7 µM (inactive). For the same compound, the GI50 [13] was 25.5 µM (inactive), the GI50 [14] was 49.5 µM (inactive) and the GI50 [15] was 41 µM (inactive). The GI50 [16] was 6.35 µM, the GI50 [17] was 62.7 µM (inactive) and the GI50 [18] was 23.7 µM (inactive). For the same compound, the GI50 [19] was 25.4 µM (inactive), the GI50 [20] was 23.8 µM (inactive) and the GI50 [21] was 18.6 µM (inactive). The GI50 [22] was 19.9 µM (inactive), the GI50 [23] was 22.4 µM (inactive) and the GI50 [24] was 18.2 µM (inactive). For the same compound, the GI50 [25] was 31.1 µM (inactive), the GI50 [26] was 36.1 µM (inactive) and the GI50 [27] was 8.41 µM (inactive). The GI50 [28] was 22 µM (inactive), the GI50 [29] was 75.2 µM (inactive) and the GI50 [30] was 24.7 µM (inactive). For the same compound, the GI50 [31] was 47.9 µM (inactive), the GI50 [32] was 81.1 µM (inactive) and the GI50 [33] was 24.5 µM (inactive). The GI50 [34] was 23.9 µM (inactive), the GI50 [35] was 64.3 µM (inactive) and the GI50 [36] was 19.6 µM (inactive). The GI50 [37] was 12.4 µM (inactive), the GI50 [38] was 42.7 µM (inactive) and the GI50 [39] was 25.9 µM (inactive). For the same compound, the GI50 [40] was 36.4 µM (inactive), the GI50 [41] was 33.7 µM (inactive) and the GI50 [42] was 29.9 µM (inactive). The GI50 [43] was 17.6 µM (inactive), the GI50 [44] was 22.5 µM (inactive) and the GI50 [45] was 7.38 µM (inactive). For the same compound, the GI50 [46] was 20.8 µM (inactive), the GI50 [47] was 37.9 µM (inactive) and the GI50 [48] was 13.7 µM (inactive).

`O=C1OC(OCC#CCOC2OC(=O)C(Cl)=C2Cl)C(Cl)=C1Cl` (centres undefined) was tested, and the GI50 [1] was 15 µM (inactive), the GI50 [2] was 2.8 µM (inactive) and the GI50 [49] was 18.9 µM (inactive). The GI50 [6] was 9.16 µM (inactive), the GI50 [50] was 1.7 µM (inactive) and the GI50 [51] was 17.3 µM (inactive). For the same compound, the GI50 [7] was 4.31 µM (inactive), the GI50 [8] was 18.4 µM (inactive) and the GI50 [10] was 18.2 µM (inactive). For the same compound, the GI50 [11] was 20.7 µM (inactive), the GI50 [12] was 13.7 µM (inactive) and the GI50 [14] was 15.3 µM (inactive). For the same compound, the GI50 [15] was 4.45 µM (inactive), the GI50 [16] was 5.85 µM and the GI50 [52] was 18.2 µM (inactive). For the same compound, the GI50 [17] was 16.2 µM (inactive), the GI50 [18] was 3.57 µM (inactive) and the GI50 [20] was 14.2 µM (inactive). The GI50 [21] was 13.6 µM (inactive), the GI50 [22] was 23.6 µM (inactive) and the GI50 [23] was 2.43 µM (inactive). For the same compound, the GI50 [24] was 20.1 µM (inactive), the GI50 [26] was 10.7 µM (inactive) and the GI50 [27] was 7.41 µM (inactive). The GI50 [53] was 4.86 µM (inactive), the GI50 [54] was 10.2 µM (inactive) and the GI50 [55] was 16.5 µM (inactive). The GI50 [30] was 19.5 µM (inactive), the GI50 [31] was 18.6 µM (inactive) and the GI50 [34] was 13.9 µM (inactive). For the same compound, the GI50 [35] was 16.1 µM (inactive), the GI50 [37] was 12.9 µM (inactive) and the GI50 [38] was 12.2 µM (inactive). The GI50 [39] was 5.6 µM (inactive), the GI50 [40] was 15.6 µM (inactive) and the GI50 [41] was 16.6 µM (inactive). For the same compound, the GI50 [42] was 2 µM (inactive), the GI50 [43] was 15.8 µM (inactive) and the GI50 [44] was 6.17 µM (inactive). The GI50 [56] was 12.4 µM (inactive), the GI50 [45] was 2.65 µM (inactive) and the GI50 [57] was 13.2 µM (inactive). For the same compound, the GI50 [46] was 11.6 µM (inactive), the GI50 [47] was 1.92 µM (inactive) and the GI50 [48] was 11.2 µM (inactive).

In the case of `CC1(C)CC[C@]2(C(=O)O)CC[C@]3(C)C(=CC[C@@H]4[C@@]5(C)C[C@H](O)[C@H](O)[C@@](C)(CO)C5=CC[C@]43C)[C@@H]2C1`, the GI50 [1] is reported as > 100 µM (inactive), the GI50 [2] is reported as 35.4 µM (inactive) and the GI50 [3] is reported as > 100 µM (inactive). For the same compound, the GI50 [49] was 21.4 µM (inactive), the GI50 [4] was > 100 µM (inactive) and the GI50 [5] was > 100 µM (inactive). The GI50 [58] was > 100 µM (inactive), the GI50 [6] was > 100 µM (inactive) and the GI50 [50] was 20.2 µM (inactive). The GI50 [51] was 51.9 µM (inactive), the GI50 [7] was 37.2 µM (inactive) and the GI50 [8] was 28.8 µM (inactive). The GI50 [9] was 31.4 µM (inactive), the GI50 [10] was > 100 µM (inactive) and the GI50 [11] was 25.8 µM (inactive). For the same compound, the GI50 [12] was 67.9 µM (inactive), the GI50 [14] was > 100 µM (inactive) and the GI50 [15] was > 100 µM (inactive). For the same compound, the GI50 [16] was 40.7 µM, the GI50 [52] was 43.1 µM (inactive) and the GI50 [17] was 34.8 µM (inactive). For the same compound, the GI50 [18] was 50.5 µM (inactive), the GI50 [19] was 50 µM (inactive) and the GI50 [20] was > 100 µM (inactive). For the same compound, the GI50 [21] was > 100 µM (inactive), the GI50 [22] was 21.3 µM (inactive) and the GI50 [23] was 35.6 µM (inactive). For the same compound, the GI50 [24] was 53.2 µM (inactive), the GI50 [25] was 55 µM (inactive) and the GI50 [26] was 35.8 µM (inactive). For the same compound, the GI50 [27] was 22.5 µM (inactive), the GI50 [53] was 55.2 µM (inactive) and the GI50 [54] was 32.5 µM (inactive). The GI50 [28] was > 100 µM (inactive), the GI50 [55] was > 100 µM (inactive) and the GI50 [29] was 61.7 µM (inactive). For the same compound, the GI50 [30] was 41.1 µM (inactive), the GI50 [31] was 39.6 µM (inactive) and the GI50 [32] was > 100 µM (inactive). The GI50 [33] was > 100 µM (inactive), the GI50 [34] was > 100 µM (inactive) and the GI50 [35] was 42.7 µM (inactive). For the same compound, the GI50 [37] was 31.1 µM (inactive), the GI50 [38] was > 100 µM (inactive) and the GI50 [39] was 55.5 µM (inactive). For the same compound, the GI50 [40] was 46.8 µM (inactive), the GI50 [41] was > 100 µM (inactive) and the GI50 [42] was > 100 µM (inactive). For the same compound, the GI50 [43] was > 100 µM (inactive), the GI50 [44] was 46.7 µM (inactive) and the GI50 [56] was 32.1 µM (inactive). The GI50 [45] was 71.3 µM (inactive), the GI50 [57] was 37.7 µM (inactive) and the GI50 [46] was 39.3 µM (inactive). For the same compound, the GI50 [47] was > 100 µM (inactive) and the GI50 [48] was > 100 µM (inactive).
